Measurements as given in ChEMBL document CHEMBL5335775, “Bioisosteric replacement of 1H-1,2,3-triazole with 1H-tetrazole ring enhances anti-leukemic activity of (5-benzylthiazol-2-yl)benzamides” (Eur J Med Chem, 2023).

How the values were obtained:
[1] = Antiproliferative activity against J774.2 cells assessed as inhibition of cell proliferation measured after 72 hrs by MTT assay; type: toxicity, cell-based; settings: mouse
[2] = Antiproliferative activity against human HaCaT cells assessed as inhibition of cell proliferation measured after 72 hrs by MTT assay; type: toxicity, cell-based
[3] = Antiproliferative activity against NIH3T3 cells assessed as inhibition of cell proliferation measured after 72 hrs by MTT assay; type: toxicity, cell-based; settings: mouse
K562 [4] = experiment: Antiproliferative activity against human K562 cells assessed as inhibition of cell proliferation measured after 72 hrs by MTT assay; type: functional, cell-based; settings: K562, 72 h
[5] = Selectivity index, ratio of IC50 for […] to IC50 for human K562 cells; type: functional
DU-145 = experiment: Antiproliferative activity against human DU-145 cells assessed as inhibition of cell proliferation incubated for 3 days by Alamar blue dye based assay; type: functional; settings: DU-145, 72 h
K562 [6] = experiment: Anticancer activity against human K562 cells assessed as cell growth at 10^-5 M incubated for 48 hrs by SRB assay relative to control; type: functional; settings: K562, 48 h, dose 1 10^-5M, read-out: Activity
[7] = Selectivity index, ratio of IC50 for human HaCaT cells to IC50 for human K562 cells; type: toxicity; settings: HaCaT cells and K562 cells, read-out: Ratio IC50
M14 [8] = experiment: Anticancer activity against human M14 cells assessed as cell growth at 10^-5 M incubated for 48 hrs by SRB assay relative to control; type: functional; settings: M14, 48 h, dose 1 10^-5M, read-out: Activity
UACC-62 [9] = experiment: Anticancer activity against human UACC-62 cells assessed as cell growth at 10^-5 M incubated for 48 hrs by SRB assay relative to control; type: functional; settings: UACC-62, 48 h, dose 1 10^-5M, read-out: Activity
KM12 = experiment: Anticancer activity against human KM12 cells assessed as cell growth at 10^-5 M incubated for 48 hrs by SRB assay relative to control; type: functional; settings: KM12, 48 h, dose 1 10^-5M, read-out: Activity
MDA-MB-435 = experiment: Anticancer activity against human MDA-MB-435 cells assessed as cell growth at 10^-5 M incubated for 48 hrs by SRB assay relative to control; type: functional; settings: MDA-MB-435, 48 h, dose 1 10^-5M, read-out: Activity
ACHN = experiment: Anticancer activity against human ACHN cells assessed as cell growth at 10^-5 M incubated for 48 hrs by SRB assay relative to control; type: functional; settings: dose 1 10^-5M, read-out: Activity
LOX IMVI = experiment: Anticancer activity against human LOX IMVI cells assessed as cell growth at 10^-5 M incubated for 48 hrs by SRB assay relative to control; type: functional; settings: dose 1 10^-5M, read-out: Activity
CAKI-1 = experiment: Anticancer activity against human CAKI-1 cells assessed as cell growth at 10^-5 M incubated for 48 hrs by SRB assay relative to control; type: functional; settings: CAKI-1, 48 h, dose 1 10^-5M, read-out: Activity
MDA-MB-468 = experiment: Anticancer activity against human MDA-MB-468 cells assessed as cell growth at 10^-5 M incubated for 48 hrs by SRB assay relative to control; type: functional; settings: MDA-MB-468, 48 h, dose 1 10^-5M, read-out: Activity
HCT-15 [10] = experiment: Anticancer activity against human HCT-15 cells assessed as cell growth at 10^-5 M incubated for 48 hrs by SRB assay relative to control; type: functional; settings: HCT-15, 48 h, dose 1 10^-5M, read-out: Activity
NCI-H460 = experiment: Anticancer activity against human NCI-H460 cells assessed as cell growth at 10^-5 M incubated for 48 hrs by SRB assay relative to control; type: functional; settings: NCI-H460, 48 h, dose 1 10^-5M, read-out: Activity
MCF7 = experiment: Anticancer activity against human MCF7 cells assessed as cell growth at 10^-5 M incubated for 48 hrs by SRB assay relative to control; type: functional; settings: MCF7, 48 h, dose 1 10^-5M, read-out: Activity
[11] = target: NAD-dependent protein deacetylase sirtuin-2 (Homo sapiens, UniProt Q8IXJ6); experiment: Inhibition of N-terminal His6-tagged human Sirt2 (25 to 389 residues) using ZMAL as substrate incubated for 4 hrs by fluorescence based assay
SK-MEL-5 = experiment: Anticancer activity against human SK-MEL-5 cells assessed as cell growth at 10^-5 M incubated for 48 hrs by SRB assay relative to control; type: functional; settings: SK-MEL-5, 48 h, dose 1 10^-5M, read-out: Activity
SF-295 = experiment: Anticancer activity against human SF-295 cells assessed as cell growth at 10^-5 M incubated for 48 hrs by SRB assay relative to control; type: functional; settings: SF-295, 48 h, dose 1 10^-5M, read-out: Activity
UACC-62 [12] = experiment: Inhibition of cell growth in human UACC-62 cells incubated for 48 hrs by SRB assay; type: functional, cell-based; settings: UACC-62, 48 h
HCT-15 [13] = experiment: Inhibition of cell growth in human HCT-15 cells incubated for 48 hrs by SRB assay; type: functional, cell-based; settings: HCT-15, 48 h
SW-620 = experiment: Inhibition of cell growth in human SW-620 cells incubated for 48 hrs by SRB assay; type: functional, cell-based; settings: SW-620, 48 h
HCC 2998 = experiment: Anticancer activity against human HCC 2998 cells assessed as cell growth at 10^-5 M incubated for 48 hrs by SRB assay relative to control; type: functional; settings: HCC 2998, 48 h, dose 1 10^-5M, read-out: Activity
K562 [14] = experiment: Inhibition of cell growth in human K562 cells incubated for 48 hrs by SRB assay; type: functional, cell-based; settings: K562, 48 h
M14 [15] = experiment: Inhibition of cell growth in human M14 cells incubated for 48 hrs by SRB assay; type: functional, cell-based; settings: M14, 48 h

NAD-dependent protein deacetylase sirtuin-2, sequence (Q8IXJ6 whole entry, the tested form may be a part): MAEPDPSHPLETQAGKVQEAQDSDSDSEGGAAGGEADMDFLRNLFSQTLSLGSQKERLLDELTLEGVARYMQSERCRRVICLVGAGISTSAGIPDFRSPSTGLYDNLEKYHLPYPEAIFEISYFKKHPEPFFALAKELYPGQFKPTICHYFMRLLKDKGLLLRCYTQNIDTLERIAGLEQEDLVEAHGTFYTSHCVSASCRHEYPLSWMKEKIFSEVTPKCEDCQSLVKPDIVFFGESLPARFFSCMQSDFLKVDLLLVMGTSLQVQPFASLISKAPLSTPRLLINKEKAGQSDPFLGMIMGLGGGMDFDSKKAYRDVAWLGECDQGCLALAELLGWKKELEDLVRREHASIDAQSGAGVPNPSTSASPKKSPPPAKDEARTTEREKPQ

Row | IC50 (K562 [4]) [µM] | SMILES | IC50 at 72 h [1] [µM] | IC50 at 72 h [2] [µM] | IC50 at 72 h [3] [µM] | Ratio IC50 [5] | growth at 10 µM (K562 [6]) [%] | also measured
1 | > 100 | Cc1nnnn1-c1ccc(C(=O)Nc2ncc(Cc3ccccc3)s2)cc1 | 3.61 | 6 | > 100 | – | – | –
2 | 1.05 | O=C(/C=C/c1ccc(-n2cnnn2)cc1)Nc1ncc(Cc2ccccc2)s1 | 37.2 | 50.4 | > 100 | 35.5 | – | –
3 | – | COc1ccc(Cc2cnc(NC(=O)/C=C/c3ccco3)s2)cc1 | – | – | – | – | – | IC50 (DU-145): 0.015 µM
4 | > 100 | COc1ccc(Cc2cnc(NC(=O)c3ccc(-n4cnnn4)cc3)s2)cc1 | 8.22 | > 100 | > 100 | – | 36.7 | –
5 | 8.3 | O=C(Nc1ncc(Cc2ccccc2)s1)c1ccc(-n2cnnn2)cc1 | 48.1 | 33 | > 100 | – | – | selectivity ratio [7]: 4
6 | 20.1 | Cc1cccc(Cc2cnc(NC(=O)c3ccc(-n4cnnn4)cc3)s2)c1 | 43.2 | > 100 | > 100 | 2.1 | 19.2 | growth at 10 µM (M14 [8]): 33.8%; growth at 10 µM (UACC-62 [9]): 12%; growth at 10 µM (KM12): 30.2%; growth at 10 µM (MDA-MB-435): 27.7%; growth at 10 µM (ACHN): 30.7%; growth at 10 µM (LOX IMVI): 30.1%; growth at 10 µM (CAKI-1): 35.2%; growth at 10 µM (MDA-MB-468): 34.2%; growth at 10 µM (HCT-15 [10]): 34.6%; growth at 10 µM (NCI-H460): 25.8%; growth at 10 µM (MCF7): 30.5%
7 | > 100 | CC(C)c1nnnn1-c1ccc(C(=O)Nc2ncc(Cc3ccccc3)s2)cc1 | 8.94 | 5.59 | > 100 | – | – | –
8 | – | COCCn1cc(COc2cccc(Cc3cnc(NC(=O)CSc4nc(C)cc(C)n4)s3)c2)nn1 | – | – | – | – | – | IC50 [11]: 0.118 µM
9 | 7.57 | O=C(Nc1ncc(Cc2cc(Cl)ccc2Cl)s1)c1ccc(-n2cnnn2)cc1 | 34.7 | > 100 | > 100 | 4.6 | 22.8 | growth at 10 µM (M14 [8]): 24.6%; growth at 10 µM (UACC-62 [9]): 8.26%; growth at 10 µM (SK-MEL-5): 22.4%; growth at 10 µM (SF-295): 30.9%; IC50 (UACC-62 [12]): 0.364 µM; IC50 (HCT-15 [13]): 0.894 µM; IC50 (SW-620): 0.508 µM; growth at 10 µM (HCC 2998): 22.7%; growth at 10 µM (LOX IMVI): 22.6%; growth at 10 µM (CAKI-1): 29%; IC50 (K562 [14]): 0.577 µM; growth at 10 µM (NCI-H460): 33%; IC50 (M14 [15]): 0.696 µM
